Reference: patent US20230257415A1, “COMPOUNDS FOR TREATING CNS DISORDERS” (SAGE THERAPEUTICS, INC., priority 2019, published 2023)

What follows are compounds tested against GABAA receptor (assay: [35S]-TBPS binding assay, rat brain cortical membranes, in the presence of GABA). Conditions: inhibition of 3 nM [35S]-TBPS binding, 5 mM GABA, 90 min, room temp.
Procedure: [35S]-t-Butylbicyclophosphorothionate (TBPS) binding assays using rat brain cortical membranes in the presence of 5 mM GABA has been described (Gee et al, J. Pharmacol. Exp. Ther. 1987, 241, 346-353; Hawkinson et al, Mol. Pharmacol. 1994, 46, 977-985; Lewin, A.H et al., Mol. Pharmacol. 1989, 35, 189-194).
Briefly, cortices are rapidly removed following decapitation of carbon dioxide-anesthetized Sprague-Dawley rats (200-250 g). The cortices are homogenized in 10 volumes of ice-cold 0.32 M sucrose using a glass/teflon homogenizer and centrifuged at 1500 x g for 10 min at 4° C. The resultant supernatants are centrifuged at 10,000 x g for 20 min at 4° C. to obtain the P2 pellets. The P2 pellets are resuspended in 200 mM NaCl/50 mM Na-K phosphate pH 7.4 buffer and centrifuged at 10,000 x g for 10 min at 4° C. This washing procedure is repeated twice and the pellets are resuspended in 10 volumes of buffer. Aliquots ([…]) of the membrane suspensions are incubated with 3 nM [^35S]-TBPS and […] aliquots of test drug dissolved in dimethyl sulfoxide (DMSO) (final 0.5%) in the presence of 5 mM GABA. The incubation is brought to a final volume of 1.0 mL with buffer. […] Following a 90 min incubation at room temp, the assays are terminated by filtration through glass fiber filters (Schleicher and Schuell No. 32) using a cell harvester (Brandel) and rinsed three times with ice-cold buffer. Filter bound radioactivity is measured by liquid scintillation spectrometry. Non-linear curve fitting of the overall data for each drug averaged for each concentration is done using Prism (GraphPad). […] The concentration of test compound producing 50% inhibition (IC50) of specific binding and the maximal extent of inhibition (Imax) are determined for the individual experiments with the same model used for the overall data and then the means ± SEM.s of the individual experiments are calculated.
Various compounds are or can be screened to determine their potential as modulators of [^35S]-TBPS binding in vitro. These assays are or can be performed in accordance with the above.
In the case of `CCOC[C@@]1(O)CC[C@@H]2C3CC[C@]4(C)[C@@H]([C@H](C)NC(=O)c5ccc(F)cc5F)CCC[C@H]4[C@@H]3CC[C@@H]2C1` (stereo partly drawn) [Example 53, N-((1S)-1-((1S,4aS,4bR,6aR,8R,10aS,12aS)-8-(ethoxymethyl)-8-hydroxy-12a-methyloctadecahydrochrysen-1-yl)ethyl)-2,4-difluorobenzamide], the IC50 is reported as 100 to 1000 nM.
In the case of `CN(C[C@H]1CCC[C@H]2[C@@H]3CC[C@@H]4C[C@](C)(O)CC[C@@H]4[C@H]3CC[C@]12C)S(=O)(=O)c1ccccc1` [Example 26, N-(((1S,4aS,4bR,6aR,8R,10aS,10bR,12aS)-8-hydroxy-8,12a-dimethyloctadecahydrochrysen-1-yl)methyl)-N-methylbenzenesulfonamide], the IC50 is reported as < 100 nM.
`C[C@@]1(O)CC[C@H]2[C@H](CC[C@@H]3[C@@H]2CC[C@]2(C)[C@@H](CNS(=O)(=O)c4ccccc4)CCC[C@@H]32)C1` [Example 25, N-(((1S,4aS,4bR,6aR,8R,10aS,10bR,12aS)-8-hydroxy-8,12a-dimethyloctadecahydrochrysen-1-yl)methyl)benzenesulfonamide] was tested, and the IC50 was < 100 nM.
Work on `CCC[C@@]1(O)CC[C@H]2[C@@H](CC[C@@H]3[C@@H]2CC[C@]2(C)[C@@H]([C@@H](C)Cn4nnnc4C)CCC[C@@H]32)C1` [Example 8, (2R,4aS,4bR,6aS,7R,10aS,10bR,12aS)-6a-methyl-7-((R)-1-(5-methyl-1H-tetrazol-1-yl)propan-2-yl)-2-propyloctadecahydrochrysen-2-ol] yielded an IC50 of 100 to 1000 nM.
For `C[C@@H]1CC[C@H]([C@@H](C)Cn2cc(C#N)cn2)[C@@]2(C)CC[C@H]3[C@@H](CC[C@@H]4C[C@](C)(O)CC[C@@H]43)[C@H]12` [Example 11, 1-((R)-2-((1R,4R,4aS,4bR,6aR,8R,10aS,10bR,12aR)-8-hydroxy-4,8,12a-trimethyloctadecahydrochrysen-1-yl)propyl)-1H-pyrazole-4-carbonitrile], the IC50 was < 100 nM.
For `CC[C@]12CC[C@H]3[C@@H](CC[C@@H]4C[C@](C)(O)CC[C@@H]43)[C@@H]1CCC[C@@H]2[C@H](C)NC(=O)c1ccc(C#N)cc1` [Example 54, 4-cyano-N-((S)-1-((1S,4aS,4bR,6aR,8R,10aS,10bR,12aS)-12a-ethyl-8-hydroxy-8-methyloctadecahydrochrysen-1-yl)ethyl)benzamide], the IC50 was 100 to 1000 nM.
With `C[C@@H](Cn1cc(C#N)cn1)[C@H]1CC[C@H]2[C@@H]3CC[C@H]4CC[C@](C)(O)CC[C@]4(C)[C@H]3CC[C@]12C` [Example 19, 1-((R)-2-((1R,3aS,3bR,5aS,8S,10aS,10bS,12aS)-8-hydroxy-8,10a,12a-trimethyloctadecahydrocyclohepta[a]cyclopenta[f]naphthalen-1-yl)propyl)-1H-pyrazole-4-carbonitrile] the IC50 was < 100 nM.
For `C[C@@]1(O)CC[C@H]2[C@H](CC[C@@H]3[C@@H]2CC[C@]2(C)[C@@H](CNC(=O)c4ccc(C#N)cc4)CCC[C@@H]32)C1` [Example 34, 4-cyano-N-(((1S,4aS,4bR,6aR,8R,10aS,10bR,12aS)-8-hydroxy-8,12a-dimethyloctadecahydrochrysen-1-yl)methyl)benzamide], the IC50 was 100 to 1000 nM.
Work on `CCOC[C@@]1(O)CC[C@@H]2C3CC[C@]4(C)[C@@H]([C@H](C)NC(=O)c5ccc(C#N)cc5F)CCC[C@H]4[C@@H]3CC[C@@H]2C1` (stereo partly drawn) [Example 55] yielded an IC50 of 100 to 1000 nM.
Compound `CC[C@]12CC[C@@](C)(O)C[C@H]1CC[C@H]1[C@@H]3CCC[C@H](CNS(=O)(=O)c4ccccc4)[C@@]3(C)CC[C@@H]12` [Example 39, N-(((1S,4aS,4bS,6aR,8R,10aS,10bS,12aS)-10a-ethyl-8-hydroxy-8,12a-dimethyloctadecahydrochrysen-1-yl)methyl)benzenesulfonamide] has an IC50 of 100 to 1000 nM.
For `C[C@@]1(O)CC[C@H]2[C@H](CC[C@@H]3[C@@H]2CC[C@]2(C)[C@@H](CNC(=O)c4ccccc4F)CCC[C@@H]32)C1` [Example 30, 2-fluoro-N-(((1S,4aS,4bR,6aR,8R,10aS,10bR,12aS)-8-hydroxy-8,12a-dimethyloctadecahydrochrysen-1-yl)methyl)benzamide], the IC50 was < 100 nM.
In the case of `CC[C@]12CC[C@@](C)(O)C[C@H]1CC[C@H]1[C@@H]3CCC[C@H](CN(C)S(=O)(=O)c4ccccc4)[C@@]3(C)CC[C@@H]12` [Example 38, N-(((1S,4aS,4bS,6aR,8R,10aS,10bS,12aS)-10a-ethyl-8-hydroxy-8,12a-dimethyloctadecahydrochrysen-1-yl)methyl)-N-methylbenzenesulfonamide], the IC50 is reported as < 100 nM.
In the case of `C[C@@H](Nc1ccc(C#N)cc1)[C@H]1CCC[C@H]2[C@@H]3CC[C@@H]4C[C@](C)(O)CC[C@@H]4C3CC[C@]12C` (stereo partly drawn) [Example 51, 4-(((1R)-1-((1S,4aS,4bR,6aR,8R,10aS,12aS)-8-hydroxy-8,12a-dimethyloctadecahydrochrysen-1-yl)ethyl)amino)benzonitrile], the IC50 is reported as < 100 nM.
In the case of `C[C@@H](Cn1cc(C#N)cn1)[C@H]1CC[C@H]2[C@@H]3CC=C4CC[C@](C)(O)CC[C@]4(C)[C@H]3CC[C@]12C` [Example 17, 1-((R)-2-((1R,3aS,3bS,8S,10aR,10bS,12aS)-8-hydroxy-8,10a,12a-trimethyl-1,2,3,3a,3b,4,6,7,8,9,10,10a,10b,11,12,12a-hexadecahydrocyclohepta[a]cyclopenta[f]naphthalen-1-yl)propyl)-1H-pyrazole-4-carbonitrile], the IC50 is reported as < 100 nM.
`CN(C[C@H]1CCC[C@H]2[C@@H]3CC[C@@H]4C[C@](C)(O)CC[C@@H]4[C@H]3CC[C@]12C)C(=O)c1ccccc1` [Example 23, N-(((1S,4aS,4bR,6aR,8R,10aS,10bR,12aS)-8-hydroxy-8,12a-dimethyloctadecahydrochrysen-1-yl)-methyl)-N-methylbenzamide] was tested, and the IC50 was 100 to 1000 nM.
`COC[C@@]1(O)CC[C@@H]2C3CC[C@]4(C)[C@@H]([C@H](C)NC(=O)c5ccc(F)cc5)CCC[C@H]4[C@@H]3CC[C@@H]2C1` (stereo partly drawn) [Example 45, 4-fluoro-N-((1S)-1-((1S,4aS,4bR,6aR,8R,10aS,12aS)-8-hydroxy-8-(methoxymethyl)-12a-methyloctadecahydrochrysen-1-yl)ethyl)benzamide] was tested, and the IC50 was 100 to 1000 nM.
For `CCC[C@@]1(O)CC[C@@]2(C)[C@@H](CC[C@@H]3[C@@H]2CC[C@]2(C)[C@@H]([C@@H](C)Cn4nnc(C)n4)CCC[C@@H]32)C1` [Example 9, (2R,4aS,4bS,6aS,7R,10aS,10bR,12aS)-4a,6a-dimethyl-7-((R)-1-(5-methyl-2H-tetrazol-2-yl)propan-2-yl)-2-propyloctadecahydrochrysen-2-ol], the IC50 was 100 to 1000 nM.
`COC[C@@]1(O)CC[C@@H]2C3CC[C@]4(C)[C@@H]([C@@H](C)NC(=O)c5ccc(C#N)cc5)CCC[C@H]4[C@@H]3CC[C@@H]2C1` (stereo partly drawn) [Example 46, 4-cyano-N-((1R)-1-((1S,4aS,4bR,6aR,8R,10aS,12aS)-8-hydroxy-8-(methoxymethyl)-12a-methyloctadecahydrochrysen-1-yl)ethyl)benzamide] showed an IC50 of 100 to 1000 nM.
